Measured values from patent publication US8748415B2 (priority 2011, dated 2014).

Test system: recombinant NL4-3 virus (Renilla luciferase in nef, Gag P373S)
Experiment: HIV cell culture assay (luciferase activity in MT-2 cells infected with NLRluc recombinant virus)
Type: cell-based
Outline: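 MT-2 cells in RPMI/10% FBS were infected with recombinant NL4-3 (NLRluc), produced by 293T transfection and titered in MT-2 by luciferase. Serial inhibitor dilutions were present throughout a 4–5 day infection. Antiviral activity was quantified as Renilla luciferase signal via a modified Dual Luciferase read.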

[1] = NL43, MT-2 cells infected 4-5 days with NLRluc recombinant virus, class symbol

Row | Structure (SMILES) | EC50 [1] [nM] | other results
1 | C=C(C)[C@@H]1CC[C@]2(CNC(=O)OCCCN3CCS(=O)(=O)CC3)CC[C@]3(C)[C@H](CC[C@@H]4[C@@]5(C)CC=C(c6ccc(C(=O)O)cc6)C(C)(C)[C@@H]5CC[C@]43C)[C@@H]12 [Example 164, 4-((1R,3aS,5aR,5bR,7aR,11aS,11bR,13aR,13bR)-3a-((((3-(1,1-dioxido-4-thiomorpholinyl)propoxy)carbonyl)amino)methyl)-1-isopropenyl-5a,5b,8,8,11a-pentamethyl-2,3,3a,4,5,5a,5b,6,7,7a,8,11,11a,11b,12,13,13a,13b-octadecahydro-1H-cyclopenta[a]chrysen-9-yl)benzoic acid] | < 100 | –
2 | C=C(C)[C@@H]1CC[C@]2(CNC(=O)OCCN3CCS(=O)(=O)CC3)CC[C@]3(C)[C@H](CC[C@@H]4[C@@]5(C)CC=C(c6ccc(C(=O)O)cc6)C(C)(C)[C@@H]5CC[C@]43C)[C@@H]12 [Example 165, 4-((1R,3aS,5aR,5bR,7aR,11aS,11bR,13aR,13bR)-3a-((((2-(1,1-dioxido-4-thiomorpholinyl)ethoxy)carbonyl)amino)methyl)-1-isopropenyl-5a,5b,8,8,11a-pentamethyl-2,3,3a,4,5,5a,5b,6,7,7a,8,11,11a,11b,12,13,13a,13b-octadecahydro-1H-cyclopenta[a]chrysen-9-yl)benzoic acid] | < 100 | –
3 | C=C(C)[C@@H]1CC[C@]2(CNC(=O)OCCCN3CCCC3=O)CC[C@]3(C)[C@H](CC[C@@H]4[C@@]5(C)CC=C(c6ccc(C(=O)O)cc6)C(C)(C)[C@@H]5CC[C@]43C)[C@@H]12 [Example 166, 4-((1R,3aS,5aR,5bR,7aR,11aS,11bR,13aR,13bR)-5a,5b,8,8,11a-pentamethyl-3a-(((3-(2-oxopyrrolidin-1-yl)propoxy)carbonylamino)methyl)-1-(prop-1-en-2-yl)-2,3,3a,4,5,5a,5b,6,7,7a,8,11,11a,11b,12,13,13a,13b-octadecahydro-1H-cyclopenta[a]chrysen-9-yl)benzoic acid] | < 100 | –
4 | C=C(C)[C@@H]1CC[C@]2(CNS(=O)(=O)c3ccc(C(=O)O)cc3)CC[C@]3(C)[C@H](CC[C@@H]4[C@@]5(C)CC=C(c6ccc(C(=O)O)cc6)C(C)(C)[C@@H]5CC[C@]43C)[C@@H]12 [Example 167, 4-(N—(((1R,3aS,5aR,5bR,7aR,11aS,11bR,13aR,13bR)-9-(4-carboxyphenyl)-5a,5b,8,8,11a-pentamethyl-1-(prop-1-en-2-yl)-2,3,3a,4,5,5a,5b,6,7,7a,8,11,11a,11b,12,13,13a,13b-octadecahydro-1H-cyclopenta[a]chrysen-3a-yl)methyl)sulfamoyl)benzoic acid] | < 100 | –
5 | C=C(C)[C@@H]1CC[C@]2(CN3CCS(=O)(=O)CC3)CC[C@]3(C)[C@H](CC[C@@H]4[C@@]5(C)CC=C(c6ccc(C(=O)O)cc6)C(C)(C)[C@@H]5CC[C@]43C)[C@@H]12 [Example 168, 4-((1R,3aS,5aR,5bR,7aR,11aS,11bR,13aR,13bR)-3a-((1,1-dioxido-4-thiomorpholinyl)methyl)-1-isopropenyl-5a,5b,8,8,11a-pentamethyl-2,3,3a,4,5,5a,5b,6,7,7a,8,11,11a,11b,12,13,13a,13b-octadecahydro-1H-cyclopenta[a]chrysen-9-yl)benzoic acid] | < 100 | –
6 | C=C(C)[C@@H]1CC[C@]2(CNC(=O)CCC(=O)O)CC[C@]3(C)[C@H](CC[C@@H]4[C@@]5(C)CC=C(c6ccc(C(=O)O)cc6)C(C)(C)[C@@H]5CC[C@]43C)[C@@H]12 [Example 169, 4-((1R,3aS,5aR,5bR,7aR,11aS,11bR,13aR,13bR)-3a-((3-carboxypropanamido)methyl)-5a,5b,8,8,11a-pentamethyl-1-(prop-1-en-2-yl)-2,3,3a,4,5,5a,5b,6,7,7a,8,11,11a,11b,12,13,13a,13b-octadecahydro-1H-cyclopenta[a]chrysen-9-yl)benzoic acid] | < 100 | –
7 | C=C(C)[C@@H]1CC[C@]2(CNC(=O)CCC(=O)OC)CC[C@]3(C)[C@H](CC[C@@H]4[C@@]5(C)CC=C(c6ccc(C(=O)O)cc6)C(C)(C)[C@@H]5CC[C@]43C)[C@@H]12 [Example 170, 4-((1R,3aS,5aR,5bR,7aR,11aS,11bR,13aR,13bR)-3a-((4-methoxy-4-oxobutanamido)methyl)-5a,5b,8,8,11a-pentamethyl-1-(prop-1-en-2-yl)-2,3,3a,4,5,5a,5b,6,7,7a,8,11,11a,11b,12,13,13a,13b-octadecahydro-1H-cyclopenta[a]chrysen-9-yl)benzoic acid] | < 100 | –
8 | C=C(C)[C@@H]1CC[C@]2(CNCCCN3CCS(=O)(=O)CC3)CC[C@]3(C)[C@H](CC[C@@H]4[C@@]5(C)CC=C(c6ccc(C(=O)NS(=O)(=O)N(C)C)cc6)C(C)(C)[C@@H]5CC[C@]43C)[C@@H]12 [Example 171, N-(dimethylsulfamoyl)-4-((1R,3aS,5aR,5bR,7aR,11aS,11bR,13aR,13bR)-3a-(((3-(1,1-dioxido-4-thiomorpholinyl)propyl)amino)methyl)-1-isopropenyl-5a,5b,8,8,11a-pentamethyl-2,3,3a,4,5,5a,5b,6,7,7a,8,11,11a,11b,12,13,13a,13b-octadecahydro-1H-cyclopenta[a]chrysen-9-yl)benzamide] | < 100 | –
9 | C=C(C)[C@@H]1CC[C@]2(CNCCCN3CCS(=O)(=O)CC3)CC[C@]3(C)[C@H](CC[C@@H]4[C@@]5(C)CC=C(c6ccc(C(=O)NS(=O)(=O)C7CC7)cc6)C(C)(C)[C@@H]5CC[C@]43C)[C@@H]12 [Example 172, benzamide, N-(cyclopropylsulfonyl)-4-((1R,3aS,5aR,5bR,7aR,11aS,11bR,13aR,13bR)-3a-(((3-(1,1-dioxido-4-thiomorpholinyl)propyl)amino)methyl)-1-isopropenyl-5a,5b,8,8,11a-pentamethyl-2,3,3a,4,5,5a,5b,6,7,7a,8,11,11a,11b,12,13,13a,13b-octadecahydro-1H-cyclopenta[a]chrysen-9-yl)benzamide] | < 100 | –
10 | C=C(C)[C@@H]1CC[C@]2(CN(CCCN3CCS(=O)(=O)CC3)C(=O)CCC(=O)NS(=O)(=O)C3CC3)CC[C@]3(C)[C@H](CC[C@@H]4[C@@]5(C)CC=C(c6ccc(C(=O)O)cc6)C(C)(C)[C@@H]5CC[C@]43C)[C@@H]12 [Example 173, 4-((1R,3aS,5aR,5bR,7aR,11aS,11bR,13aR,13bR)-3a-(((4-((cyclopropylsulfonyl)amino)-4-oxobutanoyl)(3-(1,1-dioxido-4-thiomorpholinyl)propyl)amino)methyl)-1-isopropenyl-5a,5b,8,8,11a-pentamethyl-2,3,3a,4,5,5a,5b,6,7,7a,8,11,11a,11b,12,13,13a,13b-octadecahydro-1H-cyclopenta[a]chrysen-9-yl)benzoic acid] | < 100 | –
11 | C=C(C)[C@@H]1CC[C@]2(CN)CC[C@]3(C)[C@H](CC[C@@H]4[C@@]5(C)CC=C(c6ccc(C(=O)O)cc6)C(C)(C)[C@@H]5CC[C@]43C)[C@@H]12 [Example 174, 4-((1R,3aS,5aR,5bR,7aR,11aS,11bR,13aR,13bR)-3a-(aminomethyl)-5a,5b,8,8,11a-pentamethyl-1-(prop-1-en-2-yl)-2,3,3a,4,5,5a,5b,6,7,7a,8,11,11a,11b,12,13,13a,13b-octadecahydro-1H-cyclopenta[a]chrysen-9-yl)benzoic acid] | < 100 | –
12 | C=C(C)[C@@H]1CC[C@]2(CNC(C)C)CC[C@]3(C)[C@H](CC[C@@H]4[C@@]5(C)CC=C(c6ccc(C(=O)O)cc6)C(C)(C)[C@@H]5CC[C@]43C)[C@@H]12 [Example 175, 4-((1R,3aS,5aR,5bR,7aR,11aS,11bR,13aR,13bR)-3a-((isopropylamino)methyl)-5a,5b,8,8,11a-pentamethyl-1-(prop-1-en-2-yl)-2,3,3a,4,5,5a,5b,6,7,7a,8,11,11a,11b,12,13,13a,13b-octadecahydro-1H-cyclopenta[a]chrysen-9-yl)benzoic acid] | < 100 | –
13 | C=C(C)[C@@H]1CC[C@]2(CNCCC(=O)OC)CC[C@]3(C)[C@H](CC[C@@H]4[C@@]5(C)CC=C(c6ccc(C(=O)O)cc6)C(C)(C)[C@@H]5CC[C@]43C)[C@@H]12 [Example 176, 4-((1R,3aS,5aR,5bR,7aR,11aS,11bR,13aR,13bR)-3a-((3-methoxy-3-oxopropylamino)methyl)-5a,5b,8,8,11a-pentamethyl-1-(prop-1-en-2-yl)-2,3,3a,4,5,5a,5b,6,7,7a,8,11,11a,11b,12,13,13a,13b-octadecahydro-1H-cyclopenta[a]chrysen-9-yl)benzoic acid] | – | EC50 (NL43, MT-2 cells infected 4-5 days with NLRluc recombinant virus, numeric value): 14 nM
14 | C=C(C)[C@@H]1CC[C@]2(CN3CC3)CC[C@]3(C)[C@H](CC[C@@H]4[C@@]5(C)CC=C(c6ccc(C(=O)O)cc6)C(C)(C)[C@@H]5CC[C@]43C)[C@@H]12 [Example 177, 4-((1R,3aS,5aR,5bR,7aR,11aS,11bR,13aR,13bR)-3a-(aziridin-1-ylmethyl)-5a,5b,8,8,11a-pentamethyl-1-(prop-1-en-2-yl)-2,3,3a,4,5,5a,5b,6,7,7a,8,11,11a,11b,12,13,13a,13b-octadecahydro-1H-cyclopenta[a]chrysen-9-yl)benzoic acid] | – | EC50 (NL43): < 100 nM
15 | C=C(C)[C@@H]1CC[C@]2(CNCCO)CC[C@]3(C)[C@H](CC[C@@H]4[C@@]5(C)CC=C(c6ccc(C(=O)O)cc6)C(C)(C)[C@@H]5CC[C@]43C)[C@@H]12 [Example 178, 4-((1R,3aS,5aR,5bR,7aR,11aS,11bR,13aR,13bR)-3a-((2-hydroxyethylamino)methyl)-5a,5b,8,8,11a-pentamethyl-1-(prop-1-en-2-yl)-2,3,3a,4,5,5a,5b,6,7,7a,8,11,11a,11b,12,13,13a,13b-octadecahydro-1H-cyclopenta[a]chrysen-9-yl)benzoic acid] | < 100 | –
